Data from US8669208B2, “Herbicidal benzoxazinones” (BASF SE, priority 2010, dated 2014).

How the values were obtained:
Type in all cases: in vivo
[1] = system: Chenopodium album; test: greenhouse herbicidal test, pre-emergence treatment; conditions: pre-emergence method, application rate 50 g/ha, scale from 0 to 100, read-out: herbicidal activity against Chenopodium album
From the text: (§1) The seeds of the test plants were sown separately for each species. For the pre-emergence treatment, the active ingredients, which had been suspended or emulsified in water, were applied directly after sowing by means of finely distributing nozzles. The containers were irrigated gently to promote germination and growth and subsequently covered with transparent plastic hoods until the plants had rooted. This cover caused uniform germination of the test plants, unless this has been impaired by the active ingredients. Depending on the species, the plants were kept at 10-25° C. or 20-35° C. The test period extended over 2 to 4 weeks. During this time, the plants were tended, and their response to the individual treatments was evaluated. Evaluation was carried out using a scale from 0 to 100. 100 means no emergence of the plants, or complete destruction of at least the aerial moieties, and 0 means no damage, or normal course of growth. A good herbicidal activity is given at values of at least 70 and a very good herbicidal activity is given at values of at least 85. The plants used in the greenhouse experiments belonged to the following species: [table]

[2] = system: Amaranthus retroflexus; test: as above; conditions: pre-emergence method, scale from 0 to 100, read-out: herbicidal activity against Amaranthus retroflexus; for pest or weed control at 50 g/ha: application rate 50 g/ha; for pest or weed control at 25 g/ha: application rate 25 g/ha
From the text: as §1

[3] = system: Kochia scoparia; test: greenhouse herbicidal test, post-emergence treatment; conditions: post-emergence method, application rate 12.5 g/ha; scale from 0 to 100
From the text: (§2) The seeds of the test plants were sown separately for each species. For the post-emergence treatment, the test plants were first grown to a height of 3 to 15 cm, depending on the plant habit, and only then treated with the active ingredients which had been suspended or emulsified in water. For this purpose, the test plants were either sown directly and grown in the same containers, or they were first grown separately as seedlings and transplanted into the test containers a few days prior to treatment. Depending on the species, the plants were kept at 10-25° C. or 20-35° C. The test period extended over 2 to 4 weeks. During this time, the plants were tended, and their response to the individual treatments was evaluated. Evaluation was carried out using a scale from 0 to 100. 100 means no emergence of the plants, or complete destruction of at least the aerial moieties, and 0 means no damage, or normal course of growth. A good herbicidal activity is given at values of at least 70 and a very good herbicidal activity is given at values of at least 85. The plants used in the greenhouse experiments belonged to the following species: [table]

[4] = system: Malva neglecta; test: as above; conditions: post-emergence method, application rate 12.5 g/ha; scale from 0 to 100
From the text: as §2

[5] = system: Abutilon theophrasti; test: greenhouse herbicidal test, pre-emergence treatment; conditions: pre-emergence method, application rate 50 g/ha; scale from 0 to 100
From the text: as §1

[6] = system: Viola arvensis; test: as above; conditions: pre-emergence method, application rate 25 g/ha; scale from 0 to 100
From the text: as §1

[7] = system: Amaranthus palmeri; test: greenhouse herbicidal test, post-emergence treatment; conditions: post-emergence method, application rate 12.5 g/ha; scale from 0 to 100
From the text: as §2

[8] = system: Abutilon theophrasti; test: as above; conditions: post-emergence method, application rate 1000 g/ha; scale from 0 to 100
From the text: as §2

Compound	pest or weed control at 50 g/ha [1]	pest or weed control at 50 g/ha [2]	herbicidal activity against Abutilon theophrasti [5]	other results
C#CCN1C(=O)C(F)(F)Oc2cc(F)c(/N=c3\snc4n3CC(C)(C)C4)cc21 [Example 13]	≥ 85%	≥ 85%	–	–
C#CCN1C(=O)C(F)(F)Oc2cc(F)c(/N=c3\scc(C(F)(F)F)n3C)cc21 [Example 16]	≥ 85%	≥ 85%	–	–
C#CCN1C(=O)C(F)(F)Oc2cc(F)c(N3C(=O)CC(=C(C)C)C3=O)cc21 [Example 17]	≥ 85%	≥ 85%	–	–
C#CCN1C(=O)C(F)(F)Oc2cc(F)c(N3C(=O)C(=O)N(CCC)C3=S)cc21 [Ii48, 1-Propyl-2-thioxo-3-(2,2,7-trifluoro-3-oxo-4-prop-2-ynyl-3,4-dihydro-2H-benzo[1,4]oxazin-6-yl)-imidazolidine-4,5-dione]	–	–	–	herbicidal activity against Kochia scoparia [3]: very good herbicidal activity (a very good herbicidal activity is given at values of at least 85); herbicidal activity against Malva neglecta [4]: very good herbicidal activity (a very good herbicidal activity is given at values of at least 85)
C#CCN1C(=O)C(F)(F)Oc2cc(F)c(-n3nc(C)nc3OC(F)F)cc21 [Example 12]	≥ 85%	≥ 85%	very good herbicidal activity (a very good herbicidal activity is given at values of at least 85)	–
C#CCN1C(=O)C(F)(F)Oc2cc(F)c(N3C(=O)CC(C)CC3=O)cc21 [Example 14]	≥ 85%	≥ 85%	very good herbicidal activity (a very good herbicidal activity is given at values of at least 85)	–
C#CCN1C(=O)C(F)(F)Oc2cc(F)c(-n3ncc(C(F)(F)F)c(C)c3=O)cc21 [Ia48, 2,2,7-Trifluoro-6-(5-methyl-6-oxo-4-trifluoromethyl-6H-pyridazin-1-yl)-4-prop-2-ynyl-4H-benzo[1,4]oxazin-3-one]	–	–	–	herbicidal activity against Viola arvensis [6]: very good herbicidal activity (a very good herbicidal activity is given at values of at least 85); pest or weed control at 25 g/ha [2]: ≥ 85%; herbicidal activity against Kochia scoparia [3]: very good herbicidal activity (a very good herbicidal activity is given at values of at least 85); herbicidal activity against Malva neglecta [4]: very good herbicidal activity (a very good herbicidal activity is given at values of at least 85); herbicidal activity against Amaranthus palmeri [7]: very good herbicidal activity (a very good herbicidal activity is given at values of at least 85)
C#CCN1C(=O)C(F)(F)Oc2cc(F)c(N3C(=O)OC(=C(C)C)C3=O)cc21 [Example 10]	≥ 85%	≥ 85%	very good herbicidal activity (a very good herbicidal activity is given at values of at least 85)	–
C#CCN1C(=O)C(F)(F)Oc2cc(F)c(-n3c(=O)c4ccccc4n(C)c3=O)cc21 [Ik48, 1-Methyl-3-(2,2,7-trifluoro-3-oxo-4-prop-2-ynyl-3,4-dihydro-2H-benzo[1,4]oxazin-6-yl)-1H-quinazoline-2,4-dione]	–	–	–	herbicidal activity against Viola arvensis [6]: good herbicidal activity (A good herbicidal activity is given at values of at least 70); pest or weed control at 25 g/ha [2]: ≥ 85%; herbicidal activity against Kochia scoparia [3]: very good herbicidal activity (a very good herbicidal activity is given at values of at least 85); herbicidal activity against Malva neglecta [4]: very good herbicidal activity (a very good herbicidal activity is given at values of at least 85); herbicidal activity against Amaranthus palmeri [7]: very good herbicidal activity (a very good herbicidal activity is given at values of at least 85)
C#CCN1C(=O)C(F)(F)Oc2cc(F)c(-n3nc(C)n(C(F)F)c3=O)cc21 [Example 11]	≥ 85%	≥ 85%	very good herbicidal activity (a very good herbicidal activity is given at values of at least 85)	–
C#CCN1C(=O)C(F)(F)Oc2cc(F)c(N3C(=O)c4ccc(F)cc4C3=O)cc21 [Example 15]	≥ 85%	≥ 85%	–	–
C#CCN1C(=O)C(F)(F)Oc2cc(F)c(/N=c3\sc(=O)n4n3CCCC4)cc21 [If48]	≥ 85%	≥ 85%	very good herbicidal activity (a very good herbicidal activity is given at values of at least 85)	–
C#CCN1C(=O)C(F)(F)Oc2cc(F)c(-n3nc(C(C)(C)C)oc3=O)cc21 [Ig48, 6-(5-tert-Butyl-2-oxo-[1,3,4]oxadiazol-3-yl)-2,2,7-trifluoro-4-prop-2-ynyl-4H-benzo[1,4]oxazin-3-one]	–	–	–	herbicidal activity against Viola arvensis [6]: very good herbicidal activity (a very good herbicidal activity is given at values of at least 85); pest or weed control at 25 g/ha [2]: ≥ 85%; herbicidal activity against Kochia scoparia [3]: good herbicidal activity (A good herbicidal activity is given at values of at least 70); herbicidal activity against Malva neglecta [4]: very good herbicidal activity (a very good herbicidal activity is given at values of at least 85); herbicidal activity against Amaranthus palmeri [7]: very good herbicidal activity (a very good herbicidal activity is given at values of at least 85)
C#CCN1C(=O)C(F)(F)Oc2cc(F)c(-n3nc4n(c3=O)CCCC4)cc21 [Example 9]	≥ 85%	≥ 85%	very good herbicidal activity (a very good herbicidal activity is given at values of at least 85)	–
C#CCN1C(=O)C(F)(F)Oc2cc(F)c(N3C(=O)[C@H]4C[C@H](F)CN4C3=O)cc21 [Example 2, (6S,7aR)-6-Fluoro-2-(2,2,7-trifluoro-3-oxo-4-prop-2-ynyl-3,4-dihydro-2H-benzo[1,4]-oxazin-6-yl)-tetrahydro-pyrrolo[1,2-c]imidazole-1,3-dione]	≥ 85%	≥ 85%	very good herbicidal activity (a very good herbicidal activity is given at values of at least 85)	–
Cn1nc(-c2cc3c(cc2F)OC(F)(F)C(=O)N3)cc1C(F)(F)F [Example 19]	–	–	–	herbicidal activity against Abutilon theophrasti [8]: very good herbicidal activity (a very good herbicidal activity is given at values of at least 85)
